Source: ChEMBL document CHEMBL1201862, “PubChem BioAssay data set” (2004)
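In this assay, cells in 96-well plates receive the compound at five concentrations for 48 hours. Endpoints are linearly interpolated between the surrounding concentrations. At the GI50, growth is halved.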 Activity calls are given as the source filed them. Cut-off read from the data, not from the text of the source: active = GI50 up to about 1.1 µM and inactive = higher.

Assays:
Assay in all cases: DTP human tumour cell line panel, 48 h
786-0 = test system: 786-0
A498 = test system: A498
A549 = test system: A549
ACHN = test system: ACHN
BT-549 = test system: BT-549
CAKI-1 = test system: CAKI-1
COLO 205 = test system: COLO 205
DU-145 = test system: DU-145
EKVX = test system: EKVX
HCC 2998 = test system: HCC 2998
HCT-116 = test system: HCT-116
HCT-15 = test system: HCT-15
HL-60 = test system: HL-60
HOP-62 = test system: HOP-62
HOP-92 = test system: HOP-92
HT-29 = test system: HT-29
Hs-578T = test system: Hs-578T
IGROV-1 = test system: IGROV-1
K562 = test system: K562
KM12 = test system: KM12
LOX IMVI = test system: LOX IMVI
M14 = test system: M14
MCF7 = test system: MCF7
MDA-MB-231 = test system: MDA-MB-231
MDA-MB-435 = test system: MDA-MB-435
MDA-N = test system: MDA-N
MOLT-4 = test system: MOLT-4
Malme-3M = test system: Malme-3M
NCI-H226 = test system: NCI-H226
NCI-H23 = test system: NCI-H23
NCI-H460 = test system: NCI-H460
NCI-H522 = test system: NCI-H522
NCI/ADR-RES = test system: NCI/ADR-RES
OVCAR-3 = test system: OVCAR-3
OVCAR-4 = test system: OVCAR-4
OVCAR-5 = test system: OVCAR-5
OVCAR-8 = test system: OVCAR-8
PC-3 = test system: PC-3
RPMI-8226 = test system: RPMI-8226
RXF 393 = test system: RXF 393
SF-268 = test system: SF-268
SF-295 = test system: SF-295
SF-539 = test system: SF-539
SK-MEL-28 = test system: SK-MEL-28
SK-MEL-2 = test system: SK-MEL-2
SK-MEL-5 = test system: SK-MEL-5
SK-OV-3 = test system: SK-OV-3
SN12C = test system: SN12C
SNB-19 = test system: SNB-19
SNB-75 = test system: SNB-75
SR = test system: SR
SW-620 = test system: SW-620
T47D = test system: T47D
TK-10 = test system: TK-10
U-251 = test system: U-251
UACC-257 = test system: UACC-257
UACC-62 = test system: UACC-62
UO-31 = test system: UO-31
CCRF-CEM = test system: CCRF-CEM

Clc1ccc(-c2nn3c(COc4ccc(OCc5nnc6sc(-c7ccc(Cl)cc7)nn56)c(Cl)c4)nnc3s2)cc1
GI50 (786-0): 13.7 µM (inactive)
GI50 (A498): 32.7 µM (inactive)
GI50 (A549): 24.4 µM (inactive)
GI50 (ACHN): 44.2 µM (inactive)
GI50 (BT-549): 18.9 µM (inactive)
GI50 (CAKI-1): 21.6 µM (inactive)
GI50 (COLO 205): 57.8 µM (inactive)
GI50 (DU-145): 37.5 µM (inactive)
GI50 (EKVX): 27 µM (inactive)
GI50 (HCC 2998): 20.2 µM (inactive)
GI50 (HCT-116): 24.8 µM (inactive)
GI50 (HCT-15): 28 µM
GI50 (HL-60): 17.7 µM (inactive)
GI50 (HOP-62): 23.2 µM (inactive)
GI50 (HOP-92): 17.5 µM (inactive)
GI50 (HT-29): 17.5 µM (inactive)
GI50 (Hs-578T): 30.3 µM (inactive)
GI50 (IGROV-1): 18.9 µM (inactive)
GI50 (K562): 25.1 µM (inactive)
GI50 (KM12): 29.4 µM (inactive)
GI50 (LOX IMVI): 17.9 µM (inactive)
GI50 (M14): 31.7 µM (inactive)
GI50 (MCF7): 35.7 µM (inactive)
GI50 (MDA-MB-231): 32.2 µM (inactive)
GI50 (MDA-MB-435): 33.7 µM (inactive)
GI50 (MDA-N): 22 µM (inactive)
GI50 (MOLT-4): 20.5 µM (inactive)
GI50 (Malme-3M): 37.3 µM (inactive)
GI50 (NCI-H226): 74.5 µM (inactive)
GI50 (NCI-H23): 21.1 µM (inactive)
GI50 (NCI-H460): 52 µM (inactive)
GI50 (NCI-H522): 15.6 µM (inactive)
GI50 (NCI/ADR-RES): 27.7 µM (inactive)
GI50 (OVCAR-3): 45.4 µM (inactive)
GI50 (OVCAR-4): 25.5 µM (inactive)
GI50 (OVCAR-5): 24.2 µM (inactive)
GI50 (OVCAR-8): 22 µM (inactive)
GI50 (PC-3): 31 µM (inactive)
GI50 (RPMI-8226): 24.5 µM (inactive)
GI50 (RXF 393): 15.8 µM (inactive)
GI50 (SF-268): 15.6 µM (inactive)
GI50 (SF-295): 26.5 µM (inactive)
GI50 (SF-539): 24 µM (inactive)
GI50 (SK-MEL-28): 31.3 µM (inactive)
GI50 (SK-MEL-2): 53.3 µM (inactive)
GI50 (SK-MEL-5): 20.9 µM (inactive)
GI50 (SK-OV-3): 27.3 µM (inactive)
GI50 (SN12C): > 100 µM (inactive)
GI50 (SNB-19): 14.6 µM (inactive)
GI50 (SNB-75): 12.7 µM (inactive)
GI50 (SR): 19.1 µM (inactive)
GI50 (SW-620): 24 µM (inactive)
GI50 (T47D): 36.5 µM (inactive)
GI50 (TK-10): 17.5 µM (inactive)
GI50 (U-251): 21.8 µM (inactive)
GI50 (UACC-257): 44.7 µM (inactive)
GI50 (UACC-62): > 100 µM (inactive)
GI50 (UO-31): 17.3 µM (inactive)

CC(C)C(OC(=O)c1cc(NC(=S)c2ccccc2)ccc1Cl)C(C)C
GI50 (786-0): 16.7 µM (inactive)
GI50 (A498): 21.1 µM (inactive)
GI50 (A549): 21 µM (inactive)
GI50 (ACHN): 14.9 µM (inactive)
GI50 (BT-549): 20.8 µM (inactive)
GI50 (CAKI-1): 17.2 µM (inactive)
GI50 (CCRF-CEM): 14.9 µM (inactive)
GI50 (COLO 205): 16.1 µM (inactive)
GI50 (DU-145): 24.2 µM (inactive)
GI50 (EKVX): 12.9 µM (inactive)
GI50 (HCC 2998): 12.4 µM (inactive)
GI50 (HCT-116): 12.3 µM (inactive)
GI50 (HCT-15): 9.27 µM
GI50 (HL-60): 10.6 µM (inactive)
GI50 (HOP-62): 29.6 µM (inactive)
GI50 (HOP-92): 8.39 µM (inactive)
GI50 (HT-29): 9.31 µM (inactive)
GI50 (Hs-578T): 21.1 µM (inactive)
GI50 (IGROV-1): 33 µM (inactive)
GI50 (K562): 25.7 µM (inactive)
GI50 (KM12): 5.69 µM (inactive)
GI50 (LOX IMVI): 19.8 µM (inactive)
GI50 (M14): 31.7 µM (inactive)
GI50 (MCF7): 17.3 µM (inactive)
GI50 (MDA-MB-231): 20.2 µM (inactive)
GI50 (MDA-MB-435): 14.7 µM (inactive)
GI50 (MDA-N): 16.6 µM (inactive)
GI50 (MOLT-4): 10.1 µM (inactive)
GI50 (Malme-3M): 20.4 µM (inactive)
GI50 (NCI-H226): 16 µM (inactive)
GI50 (NCI-H23): 6.5 µM (inactive)
GI50 (NCI-H460): 14.1 µM (inactive)
GI50 (NCI-H522): 8.51 µM (inactive)
GI50 (NCI/ADR-RES): 16.3 µM (inactive)
GI50 (OVCAR-3): 16.4 µM (inactive)
GI50 (OVCAR-4): 17.6 µM (inactive)
GI50 (OVCAR-5): 42.7 µM (inactive)
GI50 (OVCAR-8): 22.9 µM (inactive)
GI50 (PC-3): 8.53 µM (inactive)
GI50 (RPMI-8226): 13.3 µM (inactive)
GI50 (RXF 393): 13.1 µM (inactive)
GI50 (SF-268): 23 µM (inactive)
GI50 (SF-295): 4.53 µM (inactive)
GI50 (SF-539): 24.4 µM (inactive)
GI50 (SK-MEL-28): 21.8 µM (inactive)
GI50 (SK-MEL-2): 16 µM (inactive)
GI50 (SK-MEL-5): 14.2 µM (inactive)
GI50 (SK-OV-3): 32.4 µM (inactive)
GI50 (SN12C): 14.7 µM (inactive)
GI50 (SNB-19): 38.4 µM (inactive)
GI50 (SNB-75): 19.4 µM (inactive)
GI50 (SR): 11.9 µM (inactive)
GI50 (SW-620): 21.8 µM (inactive)
GI50 (T47D): 7.85 µM (inactive)
GI50 (TK-10): 21.5 µM (inactive)
GI50 (U-251): 19.1 µM (inactive)
GI50 (UACC-257): 13.7 µM (inactive)
GI50 (UACC-62): 11.8 µM (inactive)
GI50 (UO-31): 11.4 µM (inactive)
